The record followed here is patent US6982348B2, “Aminoethanol derivatives” (Takeda Pharmaceutical Company Limited, priority 2001, dated 2006).

By melting point is commonly meant the temperature of the solid-liquid transition.

Structures are written as SMILES.

Take `O=C(N[C@H](Cc1ccc(C(F)(F)F)cc1)[C@@H](O)c1cccc2ccccc12)c1cccc2ccccc12` (racemic) [Example 185, N-((1RS,2SR)-2-hydroxy-2-(1-naphthalenyl)-1-((4-(trifluoromethyl)phenyl)methyl)ethyl)-1-naphthalenecarboxamide]: the melting point lay in the range of 217 to 218 °C.
Under `O=C(N[C@H](Cc1ccc(C(F)(F)F)cc1)[C@@H](O)c1cccc2ccccc12)c1ccc(F)c2ccccc12` (racemic) [Example 186, 4-fluoro-N-((1RS,2SR)-2-hydroxy-2-(1-naphthalenyl)-1-((4-(trifluoromethyl)phenyl)methyl)ethyl)-1-naphthalenecarboxamide] stands 195 to 196 °C; under `O=C(N[C@H](Cc1ccc(C(F)(F)F)cc1)[C@@H](O)c1cccc2ccccc12)c1ccc2ccccc2c1` (racemic) [Example 187, N-((1RS,2SR)-2-hydroxy-2-(1-naphthalenyl)-1-((4-(trifluoromethyl)phenyl)methyl)ethyl)-2-naphthalenecarboxamide], 251 to 252 °C; under `O=C(N[C@H](Cc1ccc(C(F)(F)F)cc1)[C@@H](O)c1cccc2ccccc12)c1ccc(F)cc1` (racemic) [Example 188, 4-fluoro-N-((1RS,2SR)-2-hydroxy-2-(1-naphthalenyl)-1-((4-(trifluoromethyl)phenyl)methyl)ethyl)benzamide], 194 to 195 °C.
As for `O=C(N[C@H](Cc1ccc(C(F)(F)F)cc1)[C@@H](O)c1cccc2ccccc12)c1ccc(C(F)(F)F)cc1` (racemic) [Example 189, N-((1RS,2SR)-2-hydroxy-2-(1-naphthalenyl)-1-((4-(trifluoromethyl)phenyl)methyl)ethyl)-4-(trifluoromethyl)benzamide], the figure is 232 to 233 °C; as for `O=C(N[C@H](Cc1ccc(C(F)(F)F)cc1)[C@@H](O)c1cccc2ccccc12)C1CCCCC1` (racemic) [Example 190, N-((1RS,2SR)-2-hydroxy-2-(1-naphthalenyl)-1-((4-(trifluoromethyl)phenyl)methyl)ethyl)cyclohexanecarboxamide], 156 to 157 °C.
As for `O=C(CCCc1cccs1)N[C@H](Cc1ccc(C(F)(F)F)cc1)[C@@H](O)c1cccc2ccccc12` (racemic) [Example 191, N-((1RS,2SR)-2-hydroxy-2-(1-naphthalenyl)-1-((4-(trifluoromethyl)phenyl)methyl)ethyl)-4-(2-thienyl)butyramide], the figure is 139 to 140 °C; as for `COc1ccc([C@H](O)[C@@H](Cc2ccc(C(F)(F)F)cc2)NC(=O)c2ccc(F)c3ccccc23)cc1` (racemic) [Example 192, 4-fluoro-N-((1RS,2SR)-2-hydroxy-2-(4-methoxyphenyl)-1-((4-(trifluoromethyl)phenyl)methyl)ethyl)-1-naphthalenecarboxamide], 184 to 185 °C.
The compound `COc1ccc([C@H](O)[C@@H](Cc2ccc(C(F)(F)F)cc2)NC(=O)CCc2ccccc2)cc1` (racemic) [Example 193, N-((1RS,2SR)-2-hydroxy-2-(4-methoxyphenyl)-1-((4-(trifluoromethyl)phenyl)methyl)ethyl)-3-phenylpropanamide] displayed a melting point of 116 to 117 °C.
As for `O=C(N[C@H](Cc1ccc(C(F)(F)F)cc1)[C@@H](O)c1ccc(Cl)cc1)c1ccc(F)c2ccccc12` (racemic) [Example 194, N-[(1RS,2SR)-2-(4-chlorophenyl)-2-hydroxy-1-[4-(trifluoromethyl)benzyl]ethyl]-4-fluoronaphthalene-1-carboxamide], the figure is 203 to 204 °C; as for `O=C(N[C@H](Cc1ccc(C(F)(F)F)cc1)[C@@H](O)c1ccoc1)c1ccc(F)c2ccccc12` (racemic) [Example 195, 4-fluoro-N-((1RS,2SR)-2-(3-furanyl)-2-hydroxy-1-((4-(trifluoromethyl)phenyl)methyl)ethyl)-1-naphthalenecarboxamide], 206 to 207 °C.
`O=C(CCc1ccccc1)N[C@H](Cc1ccc(C(F)(F)F)cc1)[C@@H](O)c1ccoc1` (racemic) [Example 196, N-((1RS,2SR)-2-(3-furanyl)-2-hydroxy-1-((4-(trifluoromethyl)phenyl)methyl)ethyl)-3-phenylpropanamide] gave a melting point of 134 to 135 °C.
Regarding `O=C(N[C@H](Cc1ccc(C(F)(F)F)cc1)[C@@H](O)c1ccc(Cl)s1)c1ccc(F)c2ccccc12` (racemic) [Example 197, N-[(1RS,2RS)-2-(5-chloro-2-thienyl)-2-hydroxy-1-[4-(trifluoromethyl)benzyl]ethyl]-4-fluoronaphthalene-1-carboxamide], the melting point was 201 to 203 °C.
As for `O=C(N[C@H](Cc1ccc(C(F)(F)F)cc1)[C@@H](O)c1ccc(Cl)s1)c1cccc2c1C=CCCC2` (racemic) [Example 198, N-[(1RS,2RS)-2-(5-chloro-2-thienyl)-2-hydroxy-1-[4-(trifluoromethyl)benzyl]ethyl]-6,7-dihydro-5H-benzo[a]cycloheptene-1-carboxamide], the figure is 184 to 185 °C.
As for `O=C(N[C@H](Cc1ccc(C(F)(F)F)cc1)[C@@H](O)c1ccc(Cl)nc1)c1ccc(F)c2ccccc12` (racemic) [Example 202, N-((1RS,2SR)-2-(6-chloro-3-pyridyl)-2-hydroxy-1-((4-(trifluoromethyl)phenyl)methyl)ethyl)-4-fluoro-1-naphthalenecarboxamide], the figure is 188 to 189 °C.
`O=C(CCc1ccccc1)N[C@H](Cc1ccc(C(F)(F)F)cc1)[C@@H](O)c1ccc(Cl)nc1` (racemic) [Example 203, N-((1RS,2SR)-2-(6-chloro-3-pyridyl)-2-hydroxy-1-((4-(trifluoromethyl)phenyl)methyl)ethyl)-3-phenylpropanamide] gave a melting point of 149 to 150 °C.
As for `O=C(N[C@H](Cc1ccc(C(F)(F)F)cc1)[C@@H](O)c1cccc(Oc2ccccc2)c1)c1ccc(F)c2ccccc12` (racemic) [Example 207, N-((1RS,2SR)-2-hydroxy-2-(3-phenoxyphenyl)-1-((4-(trifluoromethyl)phenyl)methyl)ethyl)-4-fluoro-1-naphthalenecarboxamide], the figure is 184 to 185 °C; as for `O=C(CCc1ccccc1)N[C@H](Cc1ccc(C(F)(F)F)cc1)[C@@H](O)c1cccc(Oc2ccccc2)c1` (racemic) [Example 208, N-((1RS,2SR)-2-hydroxy-2-(3-phenoxyphenyl)-1-((4-(trifluoromethyl)phenyl)methyl)ethyl)-3-phenylpropanamide], 134 to 135 °C.
As for `O=C(N[C@H](Cc1ccc(C(F)(F)F)cc1)[C@@H](O)c1ccc(Oc2ccccc2)cc1)c1ccc(F)c2ccccc12` (racemic) [Example 209, N-((1RS,2SR)-2-hydroxy-2-(4-phenoxyphenyl)-1-((4-(trifluoromethyl)phenyl)methyl)ethyl)-4-fluoro-1-naphthalenecarboxamide], the melting point fell in the range of 205 to 210 °C.
Under `O=C(CCc1ccccc1)N[C@H](Cc1ccc(C(F)(F)F)cc1)[C@@H](O)c1ccc(Oc2ccccc2)cc1` (racemic) [Example 211, N-((1RS,2SR)-2-hydroxy-2-(4-phenoxyphenyl)-1-((4-(trifluoromethyl)phenyl)methyl)ethyl)-3-phenylpropanamide] stands 133 to 134 °C.
